From patent publication US8497274B2, “Heterocyclic compound and use thereof” (Takeda Pharmaceutical Company Limited, priority 2008, dated 2013)

Key:
[1] = test system: phosphorylated ERK1/2 in A-375 tumor; assay: Intratumor phosphorylated ERK inhibitory activity in malignant melanoma cell A-375 cancer-bearing rat; format: in vivo; conditions: phosphorylated ERK1/2 in A-375 tumor of nude rat, 25 mg/kg oral, 4 hrs after administration
Method: Human malignant melanoma cell A-375 (purchased from ATCC) was transplanted into 5-week-old nude rat (F344/N Jcl-mu/mu female (CLEA Japan, Inc.)) at 1.0×10^7 cells by subcutaneous injection. After 2-5 weeks from the transplantation, a test compound dissolved in 5% DMSO, 10% Cremophor, 20% PEG-400 and 65% distilled water was orally administered to rats having an engrafted tumor with a tumor volume of 200-800 mm^3 at a dose of 25 mg/kg body weight. After 4 hrs from the administration of the test compound, the tumor was collected under ether anesthesia and the tumor was homogenized in RIPA buffer (1% NP-40, 0.5% sodium deoxycholate, 1% SDS, 97.5% DPBS (GIBCO) with Protease Inhibitor Cocktail Set 3 (calbiochem) and Phosphatase Inhibitor Cocktail 2 (Sigma)). The protein in the tumor lysate was quantified using BCA Protein assay kit (Thermo), and the protein amount in the tumor lysate was adjusted to 1.25 μg/μL. 2×SDS sample buffer was added to the above-mentioned protein solution and the mixture was treated at 95° C. for 5 min.
Thereafter, SDS-PAGE was performed and the protein was transferred onto Sequi-Blot PVDF Membrane (Bio-Rad) by the Western blot method. The membrane was blocked with 5% (w/v) Block-Ace solution dissolved in phosphate buffered saline and reacted overnight with anti-phosphorylated ERK1/2 (Thr202/Tyr204) (Cell Signaling #9101) diluted 1000-fold with phosphate buffered saline containing 0.4% (w/v) Block-Ace. The membrane was washed with phosphate buffered saline containing 0.1% Tween20 (Wako Pure Chemical Industries, Ltd.), and reacted with HRP-labeled rabbit IgG polyclonal antibody (Cell Signaling #7074) diluted 1000-fold with phosphate buffered saline containing 0.4% Block-Ace for 1 hr at room temperature. […]
(Amersham Biosciences), and detected with luminoimage analyzer LAS-1000 (Fuji Film). The phosphorylated ERK1/2 protein inhibitory rate (%) of the test compound was calculated by the following formula. Inhibitory rate (%)=(1−(luminescence of test compound−blank)÷(luminescence of control group−blank))×100

[2] = test system: human colon cancer cell HT-29; assay: Colon cancer cell HT-29 growth suppressive activity in vitro; format: cell-based
Method: 100 μL of a cell suspension (3,000 cells/well) of human colon cancer cell HT-29 (purchased from ATCC) was plated in a 96-well plate, and the cells were cultured at 37° C. in the presence of 5% CO2. The next day, 100 μL of culture medium containing each test compound diluted in 2-fold dilution was added, and the cells were cultured for 3 days. The culture medium containing the test compound was removed, and the cells were washed with phosphate buffered saline (MP Biochemicals). A 50% trichloroacetic acid solution was added to the final concentration of 10% (v/v), and the mixture was stood overnight at 4° C., whereby the cells were fixed to the plate. Then, a dye SRB 0.4% (w/v) solution (dissolved in 1% acetic acid) was added at 50 μl/well, whereby the cell protein was fixed and stained (Skehan et al., Journal Of National Cancer Institute, vol. 82, pp. 1107-1112, 1990). The cells were washed 3 times with 1% acetic acid solution (200 μL/well), and 100 μL of an extract (10 mM Tris buffer) was added to extract the dye. The absorbance at an absorption wavelength 550 nm was measured, and cell amount was measured as a protein amount. Taking the protein amount of the control group free of the test compound solution as 100%, the proportion of the residual protein amount of each treatment group was determined and the concentration of the compound necessary for suppressing the residual cell amount to 50% of the control (IC50 value) was calculated. In addition, cell proliferation inhibitory rate (%) of the test compound at compound concentration 10 μM was calculated by the following formula. The results are shown in Table 3-B. Inhibitory rate (%)=(1−(absorbance of test compound−blank)÷(absorbance of control group−blank))×100

[3] = test system: MEK1/2 phosphorylation in human colon cancer cell HT-29; assay: Colon cancer cell HT-29 intracellular MEK phosphorylation inhibitory activity in vitro; format: cell-based; conditions: HT-29 cells; for IC50: 2 hrs treatment, phosphorylated MEK1/2 Western blot; for inhibition at 0.5 µM: MEK1/2 protein phosphorylation, compound 0.5 μM, read-out: Inhibitory rate (%) at 0.5 μM
Method: 500 μL of a cell suspension of human colon cancer cell HT-29 (purchased from American Type Culture Collection (ATCC)) was plated in a 48-well plate (100,000 cells/well), and the cells were cultured overnight at 37° C. in the presence of 5% CO2, treated with a test compound (250 μL/well) diluted in 3-fold dilution series and cultured for 2 hrs. After 2 hrs, the culture medium containing the test compound was removed, and the cells were lysed with SDS sample buffer (100 μL/well) and heated at 95° C. for 5 min. Thereafter, the cells lysed with SDS sample buffer were applied to SDS-PAGE, and the protein was transferred onto Sequi-Blot™ PVDF Membrane (Bio-Rad) by the Western blot method. The PDVF membrane was blocked with a Block-Ace solution (Snow Brand Milk Products Co., Ltd) dissolved in phosphate buffered saline (MP Biochemicals) to 5% W/V, and reacted overnight with anti-phosphorylated MEK1/2 (Ser217/221) (Cell signaling #9121) diluted 1000-fold with phosphate buffered saline containing 0.4% Block-Ace. The membrane was washed with phosphate buffered saline containing 0.1% Tween 20 (Wako Pure Chemical Industries, Ltd.), and reacted at room temperature for 1 hr with HRP labeled rabbit IgG polyclonal antibody (Cell signaling #7074) diluted 1000-fold with phosphate buffered saline containing 0.4% Block-Ace. The membrane was washed in the same manner as above, chemical luminescence of a phosphorylated MEK1/2 protein labeled with the antibody, which was caused by ECL-plus Detection Reagent (Amersham bioscience), was detected by Luminescent Image Analyzer LAS-1000 (FUJIFILM Corporation). Taking the luminescence of the control group free of the test compound as 100%, the concentration (IC50 value) of the compound necessary for inhibiting the residual luminescence to 50% of the control group was calculated. In addition, MEK1/2 protein phosphorylation inhibitory rate (%) of the test compound at compound concentration 0.5 μM was calculated by the following formula. The results are shown in Table 2-B. Inhibitory rate (%)=(1−(luminescence of test compound−blank)÷(luminescence of control group−blank))×100

IC50 ([2]; 72 h, HT-29 cells, 3 days culture, SRB staining) [nM]	IC50 [3] [nM]	SMILES	Inhibitory rate (%) [1] [%]	inhibition at 10 µM ([2]; HT-29 cell proliferation, compound 10 μM, read-out: Inhibitory rate (%) at 10 μM) [%]	inhibition at 0.5 µM [3] [%]
< 500	–	N#Cc1c(Oc2cccc(NC(=O)Cc3cccc(C(F)(F)F)c3)c2)ccc2nc(NC(=O)C3CC3)sc12 [Example 50, N-{7-cyano-6-[3-({[3-(trifluoromethyl)phenyl]acetyl}amino)phenoxy]-1,3-benzothiazol-2-yl}cyclopropanecarboxamide]	76	91	–
–	< 300	CC(C)(C#N)c1cccc(C(=O)Nc2cccc(Oc3ccc4nc(NC(=O)C5CC5)sc4c3C#N)c2)c1Cl [Example 3, 2-chloro-N-[3-({7-cyano-2-[(cyclopropylcarbonyl)amino]-1,3-benzothiazol-6-yl}oxy)phenyl]-3-(1-cyano-1-methylethyl)benzamide]	71	–	86
–	< 300	N#Cc1c(Oc2ccc(F)c(NC(=O)Cc3cccc(C(F)(F)F)c3)c2)ccc2nc(NC(=O)C3CC3)sc12 [Example 53, N-{7-cyano-6-[4-fluoro-3-({[3-(trifluoromethyl)phenyl]acetyl}amino)phenoxy]-1,3-benzothiazol-2-yl}cyclopropanecarboxamide]	88	–	79
